Experimental data reported in US20110269778A1, “NOVEL DIPHENYL PURINE DERIVATIVES USEFUL AS MODULATORS OF NICOTINIC ACETYLCHOLINE RECEPTORS” (NEUROSEARCH A/S, priority 2008, published 2011).

How the values were obtained:
[1] = molecular target: T1, wild-type nAChR α7 receptors (Homo sapiens, UniProt P36544); test: Positive modulation of wild-type nAChR α7 receptors expressed in Xenopus laevis oocytes, two-electrode voltage clamp; assay type: cell-based; conditions: for Emax: maximal modulation of the control response to 100 μM acetylcholine, (test-control)/control×100%, from fitted concentration response curve, read-out: EC50 Imax; for EC50: positive modulation of current induced by 100 μM acetylcholine, oocytes clamped at −60 mV, test compound 0.01-31.6 μM applied 30 s before and during acetylcholine
T1 construct: expressed in transfected cells; host or cells: Xenopus laevis oocytes
T1 sequence (P36544 23-502): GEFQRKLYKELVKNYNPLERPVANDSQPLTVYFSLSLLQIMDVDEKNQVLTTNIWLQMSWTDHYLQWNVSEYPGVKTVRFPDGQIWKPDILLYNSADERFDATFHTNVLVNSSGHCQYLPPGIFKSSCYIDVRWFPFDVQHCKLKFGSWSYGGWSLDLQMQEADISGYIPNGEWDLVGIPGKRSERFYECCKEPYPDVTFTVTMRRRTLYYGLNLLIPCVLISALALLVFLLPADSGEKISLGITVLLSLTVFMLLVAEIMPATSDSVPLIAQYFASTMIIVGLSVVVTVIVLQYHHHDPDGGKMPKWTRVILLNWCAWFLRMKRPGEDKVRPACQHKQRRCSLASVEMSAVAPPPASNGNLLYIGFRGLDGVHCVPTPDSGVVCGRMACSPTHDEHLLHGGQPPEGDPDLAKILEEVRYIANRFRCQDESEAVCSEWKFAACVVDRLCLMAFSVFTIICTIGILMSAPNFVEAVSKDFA
Description: In this example the positive modulation of wild-type nAChR α7 receptors by the compounds of the invention was determined using nAChR α7 receptors heterologously expressed in Xenopus laevis oocytes.
The electrical current through the nAChR α7 channel was measured using conventional two-electrode voltage clamp and nAChR α7 currents were activated by applying pulses of agonist-containing solution onto the nAChR α7 expressing oocyte.
In brief, the oocytes were placed in a recording chambers and continuously super-fused with an Oocyte Ringer (OR) solution containing 90 mM NaCl, 2.5 mM KCl, 2.5 mM CaCl2, 1 mM MgCl2 and 5 mM HEPES (pH adjusted to 7.4). The oocytes were clamped at −60 mV and currents were induced by applying 20 s pulses of 100 μM acetylcholine dissolved in OR. The intervals between the acetylcholine applications were 5 minutes, during which the oocytes were washed with OR. The first three applications were control applications to insure a constant response level of 100 μM acetylcholine. For the subsequent test applications, increasing concentrations (0.01-31.6 μM) of the test compound were applied 30 s before and during the acetylcholine (100 μM) application, which caused a robust increase in the acetylcholine-induced current amplitude.
The positive modulation in the presence of Compound 4 was calculated as (test-control)/control×100% and the concentration response curve for this positive modulation was fitted to the sigmoidal logistic equation: I=Imax/(1+(EC50/[compound])^n), where Imax represents the maximal modulation of the control response, EC50 is the concentration causing a half maximal response, and n is the slope coefficient.

| Compound | Emax [1] [%] | EC50 [1] [µM] | melting point [°C] |
| --- | --- | --- | --- |
| COc1ccc(-n2cnc3c(-c4ccc(C(F)(F)F)cc4F)ncnc32)cc1 [Compound 1, 6-(2-Fluoro-4-trifluoromethyl-phenyl)-9-(4-methoxy-phenyl)-9H-purine] | 45 | 1.2 | 181.4 to 182.8 |
| Oc1ccc(-n2cnc3c(-c4ccc(C(F)(F)F)cc4F)ncnc32)cc1 [Compound 2, 4-[6-(2-Fluoro-4-trifluoromethyl-phenyl)-purin-9-yl]-phenol] | 120 | 5.8 | 205.2 to 206.4 |
| NS(=O)(=O)c1ccc(-n2cnc3c(-c4ccc(C(F)(F)F)cc4F)ncnc32)cc1 [Compound 3, 4-[6-(2-Fluoro-4-trifluoromethyl-phenyl)-purin-9-yl]-benzenesulfonamide] | 44 | 9.5 | 243.8 to 245 |
| COc1ccc(-n2c(=O)[nH]c3c(-c4ccc(C(F)(F)F)cc4F)ncnc32)cc1 [Compound 4, 6-(2-Fluoro-4-trifluoromethyl-phenyl)-9-(4-methoxy-phenyl)-7,9-dihydro-purin-8-one] | 1.6 | 3.2 | 295.9 to 297.2 |
| O=c1[nH]c2c(-c3ccc(C(F)(F)F)cc3F)ncnc2n1-c1ccc(O)cc1 [Compound 5, 6-(2-Fluoro-4-trifluoromethyl-phenyl)-9-(4-hydroxy-phenyl)-7,9-dihydro-purin-8-one] | 82 | 33 | 276.4 to 277.9 |
| COc1ccc(-n2nnc3c(-c4ccc(C(F)(F)F)cc4F)ncnc32)cc1 [Compound 6, 7-(2-Fluoro-4-trifluoromethyl-phenyl)-3-(4-methoxy-phenyl)-3H-[1,2,3]-triazolo[4,5-d]pyrimidine] | 7.3 | – | 175.4 to 176.8 |
| Oc1ccc(-n2nnc3c(-c4ccc(C(F)(F)F)cc4F)ncnc32)cc1 [Compound 7, 4-[7-(2-Fluoro-4-trifluoromethyl-phenyl)-[1,2,3]triazolo[4,5-d]pyrimidin-3-yl]-phenol] | 28 | 5.9 | 210.2 to 211.8 |
